# Source: the supplement of paper PMC9013687
# Experiments:
# [1] = tested on: Danio rerio embryo; details: exposure time: 4 dpf
# Protocol: (§1)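 Zebrafish embryos (UFZ-OBI strain) were exposed from 2 hpf for 48 h (2 dpf) or 96 h (4 dpf) at 28 °C; spontaneous tail coiling was scored at 25 hpf. Morphological features from automated image analysis (FishInspector), heart rate and locomotor response were fitted with drc models. Quantal endpoints were dichotomised at 2.5 SD from controls and fitted with a log-logistic model; heart rate, pigmentation and STC were normalised to the replicate control mean. Betamethasone was tested as betamethasone dipropionate, diflorasone as diflorasone diacetate.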
# [2] = tested on: Danio rerio embryo
# Protocol: as §1
# [3] = tested on: Danio rerio embryo; details: exposure time: 4 dpf; remark: listed apart in the source
# Protocol: as §1
# [4] = tested on: Danio rerio embryo; details: exposure time: 4 dpf; remark: listed apart in the source
# Protocol: as §1
# [5] = tested on: Danio rerio embryo; assay: EC50 Eye size_Decrease; details: exposure time: 4 dpf
# Protocol: as §1
# [6] = tested on: Danio rerio embryo; assay: EC50 Curvature_Increase
# Protocol: as §1
# [7] = tested on: Danio rerio embryo; assay: EC50 Body length_Decrease; details: exposure time: 4 dpf
# Protocol: as §1
# [8] = tested on: Danio rerio embryo; assay: EC50 Bladder size_Decrease; details: exposure time: 4 dpf
# Protocol: as §1
# [9] = tested on: Danio rerio embryo; assay: EC50 Pericard size_Increase
# Protocol: as §1
# [10] = tested on: Danio rerio embryo; assay: EC50 Yolk sac size_Increase
# Protocol: as §1
# [11] = tested on: Danio rerio embryo; assay: EC50 Eye-jaw distance_Decrease; details: exposure time: 4 dpf
# Protocol: as §1
# [12] = tested on: Danio rerio embryo; assay: EC50 Otolith-eye distance_Decrease; details: exposure time: 4 dpf
# Protocol: as §1
# [13] = tested on: Danio rerio embryo; assay: EC10 LMR dark; higher = less potent; details: exposure time: 4 dpf
# Protocol: as §1
# [14] = tested on: Danio rerio embryo; assay: EC20 LMR dark; higher = less potent; details: exposure time: 4 dpf
# Protocol: as §1
# [15] = tested on: Danio rerio embryo; assay: EC10 Heart rate; higher = less potent; details: exposure time: 4 dpf
# Protocol: as §1
# [16] = tested on: Danio rerio embryo; assay: EC10 Lack of SB; higher = less potent; details: exposure time: 4 dpf
# Protocol: as §1
# [17] = tested on: Danio rerio embryo; assay: EC20 Lack of SB; higher = less potent; details: exposure time: 4 dpf
# Protocol: as §1
# [18] = tested on: Danio rerio embryo; assay: EC20 Any effect; higher = less potent
# Protocol: as §1
# [19] = tested on: Danio rerio embryo; assay: EC10 Any effect; higher = less potent
# Protocol: as §1
# [20] = tested on: Danio rerio embryo; assay: EC20 Heart rate; higher = less potent; details: exposure time: 4 dpf
# Protocol: as §1
# [21] = tested on: Danio rerio embryo; assay: EC20 Eye size_Decrease; higher = less potent; details: exposure time: 4 dpf
# Protocol: as §1
# [22] = tested on: Danio rerio embryo; assay: EC10 Eye size_Decrease; higher = less potent; details: exposure time: 4 dpf
# Protocol: as §1
structure (smiles),measurement,setting,value
CC1(C)O[C@@H]2[C@@H](CO[C@@]3(COS(N)(=O)=O)OC(C)(C)O[C@@H]23)O1 [Topiramate],EC50 Lack of SB,[1],69.7 µM
same,EC50 Any effect,[2]; exposure time: 2 dpf,321 µM
same,EC50 Any effect,[2]; exposure time: 4 dpf,94.9 µM
same,EC50 LMR dark,[3],461 µM
same,EC50 Heart rate,[4],87.8 µM
same,EC50 Eye size Decrease,[5],242 µM
same,EC50 Curvature Increase,[6]; exposure time: 2 dpf,1250 µM
same,EC50 Curvature Increase,[6]; exposure time: 4 dpf,927 µM
same,EC50 Body length Decrease,[7],142 µM
same,EC50 Bladder size Decrease,[8],49.5 µM
same,EC50 Pericard size Increase,[9]; exposure time: 2 dpf,208 µM
same,EC50 Pericard size Increase,[9]; exposure time: 4 dpf,563 µM
same,EC50 Yolk sac size Increase,[10]; exposure time: 2 dpf,990 µM
same,EC50 Yolk sac size Increase,[10]; exposure time: 4 dpf,303 µM
same,EC50 Eye-jaw distance Decrease,[11],236 µM
same,EC50 Otolith-eye distance Decrease,[12],80.9 µM
same,EC10 LMR dark,[13],273 µM
same,EC20 LMR dark,[14],331 µM
same,EC10 Heart rate,[15],13.3 µM
same,EC10 Lack of SB,[16],29.7 µM
same,EC20 Lack of SB,[17],40.7 µM
same,EC20 Any effect,[18]; exposure time: 2 dpf,59.1 µM
same,EC20 Any effect,[18]; exposure time: 4 dpf,38.7 µM
same,EC10 Any effect,[19]; exposure time: 2 dpf,22 µM
same,EC10 Any effect,[19]; exposure time: 4 dpf,22.9 µM
same,EC20 Heart rate,[20],28.3 µM
same,EC20 Eye size Decrease,[21],97.9 µM
same,EC10 Eye size Decrease,[22],57.7 µM
